Values quoted from earlier work as cited in patent publication US10206949B2, “Composition that relieves heartburn, GERD and hangovers” (priority 2015, dated 2019).

[1] = patients with acute renal or cardiac failure

For CNC(=C[N+](=O)[O-])NCCSCc1ccc(CN(C)C)o1 [ranitidine, N-(2-[(5-[(dimethylamino)methyl]furan-2-yl)methylthio]ethyl)-N′-methyl-2-nitroethene-1,1-diamine], the “false positives for methamphetamine on drug tests” value (in vivo) is listed as “known to give false positives”, the fungal sepsis (patients on ranitidine) is listed as “observed in some patients” and the mucosal perfusion [1] is listed as “decrease mucosal perfusion”. The risk of death [1] was “increases their risk of death”.
